Tests used:
RARγ = biological target: T1, RARγ (Homo sapiens, UniProt P13631); experiment: ligand binding assay, RARγ; conditions: read-out: RAR Bind Ki γ
T1 sequence (P13631 1-454): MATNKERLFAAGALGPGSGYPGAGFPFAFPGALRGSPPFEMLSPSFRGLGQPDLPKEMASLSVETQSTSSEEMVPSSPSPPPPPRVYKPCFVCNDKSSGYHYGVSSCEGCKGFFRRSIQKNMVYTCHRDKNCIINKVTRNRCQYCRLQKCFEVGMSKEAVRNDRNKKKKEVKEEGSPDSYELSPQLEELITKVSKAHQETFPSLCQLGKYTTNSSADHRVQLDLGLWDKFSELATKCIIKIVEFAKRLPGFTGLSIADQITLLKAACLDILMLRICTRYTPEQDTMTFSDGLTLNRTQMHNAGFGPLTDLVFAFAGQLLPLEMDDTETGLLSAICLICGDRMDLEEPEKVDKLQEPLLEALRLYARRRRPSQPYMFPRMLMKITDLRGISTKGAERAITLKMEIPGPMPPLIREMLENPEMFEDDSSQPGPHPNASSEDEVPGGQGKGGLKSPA
Source text: (§1) Other assays described below, measure the ability of the compounds of the present invention to bind to, and/or activate various retinoid receptor subtypes. When in these assays a compound binds to a given receptor subtype and activates the transcription of a reporter gene through that subtype, then the compound is considered an agonist of that receptor subtype. […] In the below described assays the ability of the compounds to bind to RARα, RARβ, RARγ, RXRα, RXRβ and RXRγ receptors, and the ability or inability of the compounds to activate transcription of a reporter gene through these receptor subtypes can be tested. […] However, some of the compounds of the invention may behave as retinoid antagonists or partial antagonists and/or as inverse agonists. Because of the complex distribution of the different retinoid receptors in various organs of the mammalian body partial agonists and partial antagonists and compounds which have the characteristics of both may lend themselves to particularly useful therapeutic applications and may avoid serious side effects of conventional retinoid drugs.
(§2) A holoreceptor transactivation assay and a ligand binding assay which measure the antagonist/agonist like activity of the compounds of the invention, or their ability to bind to the several retinoid receptor subtypes, respectively, are described in published PCT Application No. WO WO93/11755 (particularly on pages 30-33 and 37-41) published on Jun. 24, 1993, the specification of which is also incorporated herein by reference. A detailed experimental procedure for holoreceptor transactivations has been described by Heyman et al. Cell 68, 397-406, (1992); Allegretto et al. J. Biol. Chem. 268, 26625-26633, and Mangelsdorf et al. The Retinoids: Biology, Chemistry and Medicine, pp 319-349, Raven Press Ltd., New York, which are expressly incorporated herein by reference. The results obtained in this assay are expressed in EC50 numbers, as they are also in the chimeric receptor transactivation assay. The results of ligand binding assay are expressed in Kd numbers. (See Cheng et al. Biochemical Pharmacology Vol. 22 pp 3099-3108, expressly incorporated herein by reference.)
(§3) Table 1 discloses the activity of certain exemplary compounds of the invention in the above-described chimeric receptor transactivation assay, holoreceptor transactivation assay and a ligand binding assays. Particularly, the transactivation data pertaining to RAR receptors were obtained in the chimeric assay, and the data pertaining to transactivation of RXR receptors were obtained in the holoreceptor transactivation assay.

RARα = biological target: T2, RARα (Homo sapiens, UniProt P10276); experiment: ligand binding assay, RARα; conditions: read-out: RAR Bind Ki α
T2 sequence (P10276 1-462): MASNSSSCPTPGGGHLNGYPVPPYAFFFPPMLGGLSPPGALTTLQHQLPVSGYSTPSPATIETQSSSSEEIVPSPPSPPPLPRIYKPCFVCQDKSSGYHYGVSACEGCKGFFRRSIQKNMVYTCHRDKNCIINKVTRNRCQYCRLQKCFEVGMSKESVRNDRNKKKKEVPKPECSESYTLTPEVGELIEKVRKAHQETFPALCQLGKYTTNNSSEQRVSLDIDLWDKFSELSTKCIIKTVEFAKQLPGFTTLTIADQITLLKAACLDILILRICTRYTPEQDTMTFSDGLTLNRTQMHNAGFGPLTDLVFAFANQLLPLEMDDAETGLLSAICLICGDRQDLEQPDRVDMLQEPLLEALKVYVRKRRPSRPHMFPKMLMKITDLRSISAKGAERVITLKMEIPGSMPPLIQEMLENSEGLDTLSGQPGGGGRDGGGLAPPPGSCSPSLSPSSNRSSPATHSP
Source text: as §1, §2, §3

RXRγ = biological target: T3, RXRγ (Mus musculus, UniProt P28705); experiment: holoreceptor transactivation assay, RXRγ; assay type: cell-based; conditions: for EC50: holoreceptor assay, read-out: RXR Trans EC50 γ; for Emax: relative to 10^-6 M cyclopropyl penta-2,4-dienoic acid reference, read-out: % efficacy, RXRγ transactivation
T3 construct: expressed in transfected cells
T3 sequence (P28705 1-463): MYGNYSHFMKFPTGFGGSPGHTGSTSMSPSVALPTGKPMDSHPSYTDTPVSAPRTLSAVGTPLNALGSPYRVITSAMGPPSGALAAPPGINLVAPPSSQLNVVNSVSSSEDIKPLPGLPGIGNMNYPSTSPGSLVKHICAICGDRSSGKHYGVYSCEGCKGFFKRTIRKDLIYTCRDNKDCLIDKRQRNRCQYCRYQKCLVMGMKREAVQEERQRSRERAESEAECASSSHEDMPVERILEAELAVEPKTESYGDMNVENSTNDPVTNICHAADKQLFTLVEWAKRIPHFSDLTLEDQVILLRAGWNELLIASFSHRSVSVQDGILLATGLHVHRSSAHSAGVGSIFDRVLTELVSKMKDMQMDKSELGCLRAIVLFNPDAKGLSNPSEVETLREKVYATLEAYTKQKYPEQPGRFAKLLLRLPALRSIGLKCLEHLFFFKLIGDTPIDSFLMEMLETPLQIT
Source text: as §1, §2, §3

RXRα [1] = biological target: T4, RXRα (Homo sapiens, UniProt P19793); experiment: holoreceptor transactivation assay, RXRα; assay type: cell-based; conditions: for EC50: holoreceptor assay, read-out: RXR Trans EC50 α; for Emax: relative to 10^-6 M cyclopropyl penta-2,4-dienoic acid reference, read-out: % efficacy, RXRα transactivation
T4 construct: expressed in transfected cells
T4 sequence (P19793 1-462): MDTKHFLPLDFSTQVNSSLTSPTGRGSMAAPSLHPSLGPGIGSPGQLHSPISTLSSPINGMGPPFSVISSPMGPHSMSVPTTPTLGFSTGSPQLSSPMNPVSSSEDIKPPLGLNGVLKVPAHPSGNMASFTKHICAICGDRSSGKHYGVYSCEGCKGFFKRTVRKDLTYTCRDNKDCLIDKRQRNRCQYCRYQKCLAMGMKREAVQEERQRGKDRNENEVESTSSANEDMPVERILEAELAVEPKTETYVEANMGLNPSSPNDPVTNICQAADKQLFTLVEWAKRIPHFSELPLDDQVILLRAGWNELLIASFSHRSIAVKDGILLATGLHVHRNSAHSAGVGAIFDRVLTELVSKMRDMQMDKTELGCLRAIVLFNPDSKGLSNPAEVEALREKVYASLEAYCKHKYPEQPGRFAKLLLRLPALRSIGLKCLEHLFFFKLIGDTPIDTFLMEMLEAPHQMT
Source text: as §1, §2, §3

RXRα [2] = biological target: T4, RXRα; experiment: ligand binding assay, RXRα; conditions: read-out: RXR Bind Ki α
Source text: as §1, §2, §3

SMILES	Ki (RARγ) [µM]	Ki (RARα) [µM]	EC50 (RXRγ) [µM]	Emax (RXRγ) [%]	EC50 (RXRα [1]) [µM]	Emax (RXRα [1]) [%]	Ki (RXRα [2]) [µM]
CC(C)N1CCC(C)(C)c2cc(N(C)c3ccc(C(=O)O)cc3)ccc21 [Compound 10, 4-[(1-Isopropyl-4,4-dimethyl-1,2,3,4-tetrahydroquinolin-6-yl)methylamino]benzoic Acid]	> 10	> 10	1	50	1	70	> 1
CCN(c1ccc(C(=O)O)cc1)c1cc2c(cc1C)C(C)(C)CCN2C(C)C [Compound 52, 4-[-(1-Isopropyl-4,4,6-trimethyl-1,2,3,4-tetrahydro-quinolin-7-yl)ethylamino]-benzoic acid]	10	9.6	0.0005	96	0.0002	94	0.028
CCCN(c1ccc(C(=O)O)cc1)c1cc2c(cc1C)C(C)(C)CCN2C(C)C [Compound 53, 4-[(1-Isopropyl-4,4,6-trimethyl-1,2,3,4-tetrahydro-quinolin-7-yl)-propyl-amino]-benzoic acid]	17	3.01	0.0003	96	0.0002	92	0.044
CCN(c1ccc(C(=O)O)cc1)c1ccc2c(c1)C(C)(C)CC(=O)N2C(C)C [Compound 6, 4-[(1-Isopropyl-4,4-dimethyl-2-oxo-1,2,3,4-tetrahydroquinolin-6-yl)ethylamino]benzoic Acid]	> 30	10			1	50	9
Cc1cc2c(cc1N(C)c1ccc(C(=O)O)cc1)N(C(C)C)CCC2(C)C [Compound 51, 4-[(1-Isopropyl-4,4,6-trimethyl-1,2,3,4-tetrahydro-quinolin-7-yl)-methyl-amino]-benzoic acid]	> 10	> 10	0.047	104	0.032	92	0.221
CCN(c1ccc(C(=O)O)cc1)c1ccc2c(c1)N(C(C)C)CCC2(C)C [Compound 38, 4-[(1-Isopropyl-4,4-dimethyl-1,2,3,4-tetrahydroquinolin-7-yl)ethylamino]benzoic acid]	6.3	> 10	0.001	109	0.0006	114	0.01
CCN(c1ccc(C(=O)O)cc1)c1cc2c(cc1C)N(C(C)C)CCC2(C)C [Compound 24, 4-[(1-Isopropyl-4,4,7-trimethyl-1,2,3,4-tetrahydroquinolin-6-yl)ethylamino]benzoic acid]	9.2	> 10	0.069	117	0.036	90	0.448

Stronger by Ki (RARγ), values ahead:

Ki (RARγ) [µM]	Ki (RARα) [µM]	EC50 (RXRγ) [µM]	Emax (RXRγ) [%]	EC50 (RXRα [1]) [µM]	Emax (RXRα [1]) [%]	Ki (RXRα [2]) [µM]	SMILES
1.7	> 10	1	100	1	80	1.2	Cc1cc2c(cc1N(C)c1ccc(C(=O)O)cc1)C(C)(C)CCN2C(C)C [Compound 22, 4-[(1-Isopropyl-4,4,7-trimethyl-1,2,3,4-tetrahydroquinolin-6-yl)methylamino]benzoic acid]
4.7	15	1	75	> 1	25	0.413	Cc1cc2c(cc1N(CC1CC1)c1ccc(C(=O)O)cc1)C(C)(C)CCN2C(C)C [Compound 26, 4-[(1-Isopropyl-4,4,7-trimethyl-1,2,3,4-tetrahydro-quinolin-6-yl)(cyclopropylmethyl)amino]benzoic acid]
2.8	6.7	0.002	112	0.001	121	0.049	CC(C)CN(c1ccc(C(=O)O)cc1)c1ccc2c(c1)N(C(C)C)CCC2(C)C [Compound 39, 4-[(1-Isopropyl-4,4-dimethyl-1 2,3,4-tetrahydroquinolin-7-yl)isobutylamino]benzoic acid]
3.5	5.1	0.0002	105	0.0001	110	0.009	CC(C)N1CCC(C)(C)c2ccc(N(CC3CC3)c3ccc(C(=O)O)cc3)cc21 [Compound 40, 4-[(1-Isolpropyl-4,4-dimethyl-1,2,3,4-tetrahydroquinolin-7-yl)(cylopropylmethyl)amino]benzoic acid]
1	0.467	0.148	150	0.078	134	0.136	CCN(c1ccc(C(=O)O)cc1)c1ccc2c(c1)C(C)(C)CCN2C(C)C [Compound 12, 4-[(1-Isopropyl-4,4-dimethyl-1,2,3,4-tetrahydroquinolin-6-yl)ethylamino]benzoic acid]
1.5	0.34					0.904	CC(C)CCN(c1ccc(C(=O)O)cc1)c1ccc2c(c1)C(C)(C)CCN2C(C)C [Compound 14, 4-[(1-Isopropyl-4,4-dimethyl-1,2,3,4-tetrahydroquinolin-6-yl)(3-methylbutyl)amino]-benzoic Acid]
